The source of these data is patent US20150335535A1, “DENTAL ADHESIVE” (DENTSPLY INTERNATIONAL INC., priority 2008, published 2015).

This data set can be described thus: Thermal stability of test formulation on storage at 60° C. until thermal polymerization. Conditions: for sufficient thermal stability: inhibitor in test formulation; for thermal stability of formulation FBE-05.44.01: all columns dark shaded. In kind it is physicochemical. How it is done: A series of test formulations containing different thermal polymerization inhibitors was prepared in order to illustrate the surprising thermal stability of a dental adhesive composition according to the present invention. Test formulations containing different inhibitors or inhibitor concentrations were stored in Prime&Bond NT bottles ([…]) at 60° C. until thermal polymerization. The bottles were daily examined by shaking the bottle, whereby the acoustical test turned out to be rather sensitive, and by taking a sample with a pipette. When polymerization seemed to have occurred or after a certain minimum storage time (20 days) the bottles were sliced open and the solution were examined visually. According to the results of the above described Arrhenius investigation at least a thermal stability of about 11 days at 60° C. is necessary so that the dental adhesive composition may be stored at room temperature. The Test Formulation containing different inhibitors in different amounts, was investigated regarding its thermal stability by storing these formulations at 60° C. The samples were daily examined. In case of polymerization a gel or a solid, polymerized body was observed. The dark shaded columns represent formulations with inhibitors, respectively inhibitor concentrations, which were polymerized after the depicted time at 60° C. The light shaded columns represent formulations, which were not polymerized until the depicted time. Usually after 20 days the investigation was terminated.

Molecules are shown by their SMILES.

For the molecule `Cc1cc(C(C)(C)C)c(O)c(C(C)(C)C)c1` [BHT, 2,6-di-tert.-butyl-p-cresol], under “storage at 60° C.”, the sufficient thermal stability result is “failed to provide a sufficient thermal stability”. For the molecule `CC(C)(c1ccc(O)cc1)c1ccc(O)cc1` [Bisphenol A], the “thermal stability of formulation FBE-05.44.01” value (storage at 60° C.) is reported as “polymerized after the recorded time”. Turning to `Oc1ccc(O)cc1` [HQ, hydroquinone], the stabilization effect entry (inhibitor 0.15 mol % in test formulation, storage at 60° C.) is recorded as “some stabilization effect”. Consider `COc1ccc(O)cc1` [HQME, hydroquinone monomethylether], for which the “visual examination after slicing open the bottle” value (0.49 mol % inhibitor in FBE-05.44.01, storage at 60° C.) was “small pieces of gel were found at the bottom” and the “visual examination after slicing open the bottle” value (0.697 mol % inhibitor in FBE-05.44.01, storage at 60° C.) is on record as “small pieces of gel were found at the bottom”. Further, the sufficient thermal stability entry (storage at 60° C.) is given as “failed to provide a sufficient thermal stability”. For `CCCOC(=O)c1cc(O)c(O)c(O)c1` [PG, Propyl gallate], the “thermal stability of formulation FBE-05.44.01” value (storage at 60° C.) is recorded as “polymerized after the recorded time”. Turning to `CC(C)(C)c1ccc(O)c(O)c1` [TBC], the “visual examination after slicing open the bottle” value (0.193 mol % inhibitor, storage at 60° C.) is recorded as “some pieces of gel were found at the bottom”. Regarding `CC(C)(C)c1cc(O)ccc1O` [TBHQ, tert-Butylhydroquinone], the “visual examination after slicing open the bottles” value runs as follows: (0.013 mol % inhibitor, after 20 days at 60° C.) “polymerization was found”; (after 14 days and after 20 days at 60° C., FBE-05.44.01) “No hints of a polymerization were found”. Consider `COc1ccc(O)c(C(C)(C)C)c1` [tert.-Butylhydroxyanisole, tert.-Butylhydroxyanisol], for which the “visual examination after slicing open the bottles” value (0.047 mol % inhibitor, after 14 days at 60° C.) is recorded as “some pieces of gel”; the “visual examination after slicing open the bottles” value (0.047 mol % inhibitor, after 20 days at 60° C.) is given as “some small pieces of gel”; the “visual examination after slicing open the bottles” value (0.096 mol % inhibitor, after 20 days at 60° C.) was “No indication of polymerization”; the “visual examination after slicing open the bottles” value (0.147 mol % inhibitor, after 20 days at 60° C.) was “No indication of polymerization”.
